In this assay the target is T1, CYP1A2 (Homo sapiens, UniProt P05177).
T1 sequence (P05177 1-516): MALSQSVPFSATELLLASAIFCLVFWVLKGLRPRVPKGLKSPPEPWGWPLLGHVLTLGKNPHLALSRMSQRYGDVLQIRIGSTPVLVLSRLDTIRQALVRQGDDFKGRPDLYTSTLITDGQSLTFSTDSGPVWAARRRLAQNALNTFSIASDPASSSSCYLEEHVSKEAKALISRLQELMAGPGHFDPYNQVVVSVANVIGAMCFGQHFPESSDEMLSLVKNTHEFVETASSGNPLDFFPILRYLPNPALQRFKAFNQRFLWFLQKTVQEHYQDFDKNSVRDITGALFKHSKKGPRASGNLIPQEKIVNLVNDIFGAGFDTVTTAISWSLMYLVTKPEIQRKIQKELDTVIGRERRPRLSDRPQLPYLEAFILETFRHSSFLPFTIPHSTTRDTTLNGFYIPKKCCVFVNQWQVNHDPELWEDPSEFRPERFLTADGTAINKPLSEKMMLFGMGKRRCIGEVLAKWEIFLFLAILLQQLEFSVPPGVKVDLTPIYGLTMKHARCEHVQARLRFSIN
Description: Inhibition of cytochrome P450 isozymes in human liver microsomes, CYP1A2. It counts as in vitro ADME. Conditions: phenacetin substrate. The procedure: (1) Study on the Inhibition of Cytochrome P450 Isozymes
The probe substrate, test compound, human liver microsomes, and cofactors were incubated together. The concentration of the metabolic product of the probe substrate was detected using LC-MS/MS to calculate the IC50 values. In the vehicle control samples, the test compound was replaced with an equal volume of vehicle, and the enzyme activity of the vehicle control samples was set as 100%. […]
Upon reaching the respective reaction times for the incubation systems of the various isoenzymes, 200 μL of termination solution containing the appropriate internal standard was added to the reaction plate to terminate the reaction. […] The metabolites of the probe substrates were then analyzed using LC-MS/MS. […]
The activity of various CYP isoenzymes was reflected by the production rate of metabolites from each probe substrate. […] The residual activity percentage of each isoenzyme was determined by comparing the metabolite production rate of the probe substrate in the presence of different concentrations of the test compound or positive inhibitor to that of the vehicle control samples, then multiplying by 100%. […]
Background: Microsomes from liver hold many membrane-bound enzymes, among them those of drug oxidation.

Molecules are shown by their SMILES.

The IC50 is the concentration needed to halve the response being measured. The low end stands for inhibition by little substance, the high end for a need for much substance. Consider `FCCCN1CC[C@H](Nc2cnc(C3=C(CC(F)(F)F)CCCc4c3ccc3[nH]nc(F)c43)cn2)C1` [Compound of formula (I)], for which the IC50 was 97.2 µM.

Values taken from US12410155B2, “Salt form and crystal form of tetrahydrocyclohepta indazole compound” (Zhejiang Yangli Pharmaceutical Technology Co., Ltd., priority 2021, dated 2025).
